Tests used:
[1] = test system: NITD609-R2 (PfATP4 T418N and P990R, parent Dd2); test: Cross-resistance EC50 assay, NITD609-R2; type: cell-based; conditions: Plasmodium falciparum, SYBR green 72 hour assay, asynchronized parasites, 96-well or 1536-well format
Source text: (§1) To evaluate potential overlapping activity against known antimalarial drug targets, we performed dose-response studies with each compound against our assembled set of drug-resistant lines and their corresponding parents, in an asexual blood stage proliferation assay (Table 1). Comparisons were made to the drug-sensitive strain 3D7 when a parent was unavailable (TM90C2A, W2 and Dd2). As laboratories conducted EC50 assays with different strains and protocols, all comparisons were made between assays from the same laboratory and under the same assay conditions. Compounds displaying >5-fold EC50 shifts relative to the parent or sensitive strain were flagged as having potentially non-novel targets. Average fold shifts per strain ranged from 0.82 to 2.34, with a median of 1.23 indicating there was not common resistance to any one resistant clone. No resistance patterns were observed when classifying the compounds based on chemical structure, but this was not surprising given the diversity of compounds chosen. On the other hand, given that these confirmed compounds were derived from larger unconfirmed hit lists to which some filtration criteria may have been applied (for example, elimination of obvious dihydrofolate reductase inhibitors[32]), some[10][11][12][13] pre-existing bias may exist in the set. […]
(§2) Alternatively, a SYBR Green-based proliferation approach was used for the 72-h assay, as previously described. Briefly, a culture of either synchronized or asynchronous parasitized RBCs (0.3% parasitemia and 4% haematocrit) in screening medium (identical to supplemented medium above except no serum was added) was exposed to serial drug dilutions. Plates were incubated at 37 °C and gassed with 93% N2, 4% CO2 and 3% O2 for 72 h. Following incubation, 10 × SYBR Green I (Invitrogen; supplied in 10,000 × concentration) in lysis buffer ([…], 5 mM EDTA, 0.16% Saponin wt per vol and 1.6% Triton X vol per vol) was added to the wells and the plates were incubated overnight at room temperature before plate reading. EC50 assays were repeated three times, taking the average EC50 value from each assay set, and removing any outliers using a single iteration of Grubbs' test, eliminating values with z-scores above the critical z-value (α=0.05). The raw EC50 values for synchronized parasites assayed in a 384-well format are listed in Supplementary Data 4. The raw EC50 values for asynchronous parasites assayed in a 96 or 1536-well format are listed in Supplementary Data 5.
(§3) EC50 values for each strain were compared with those of the corresponding parent strain to determine fold-shift changes and identify resistance. To minimize the cause variance between assays, all comparisons were conducted between strains assayed under identical conditions. A one-way ANOVA followed by a Dunnet's post-test was conducted in GraphPad Prism to identify significant changes between the parent and resistant strain.

[2] = test system: GNF449-R2 (PfATP4 I203L and P990R, parent Dd2); test: Cross-resistance EC50 assay, GNF449-R2; type: cell-based; conditions: Plasmodium falciparum, SYBR green 72 hour assay, asynchronized parasites, 96-well or 1536-well format
Source text: as §1, §2, §3

W2 = test: Cross-resistance EC50 assay, W2 parent; type: cell-based, Plasmodium falciparum; conditions: Plasmodium falciparum, 48 h, read-out: W2F6 (PARENT) Average EC50
Source text: Multidrug resistance alleles, including mutations in P. falciparum chloroquine resistance transporter (pfcrt) and P. falciparum multi-drug resistance transporter 1 (pfmdr1) are very common in field isolates. Therefore, we sought to assess the degree to which pre-existing resistance alleles would contribute to a loss of potency for this diverse collection of small molecule compounds. Fifteen clones derived from three main parent lines were chosen to maximize diversity in mutated pathways and genetic backgrounds, thus representing the variety of resistance seen in the field: 3D7 (ref. [23]), W2 (ref. [24]) or Dd2 (ref. [25]). The 3D7 line originates from the clone of a Netherlands clinical isolate strain[23][26] and is generally considered to be drug sensitive, though it does convey resistance to sulfadoxine. Conversely, W2 (ref. [24], [27]) and Dd2 (ref. [25]) are multi-drug-resistant lines originating from the Indochina III/CDC isolate, which contain point mutations in pfcrt as well as amplifications in pfmdr1 and GTP cyclohydrolase.
To evaluate potential overlapping activity against known antimalarial drug targets, we performed dose-response studies with each compound against our assembled set of drug-resistant lines and their corresponding parents, in an asexual blood stage proliferation assay (Table 1). Comparisons were made to the drug-sensitive strain 3D7 when a parent was unavailable (TM90C2A, W2 and Dd2). As laboratories conducted EC50 assays with different strains and protocols, all comparisons were made between assays from the same laboratory and under the same assay conditions. Compounds displaying >5-fold EC50 shifts relative to the parent or sensitive strain were flagged as having potentially non-novel targets. Average fold shifts per strain ranged from 0.82 to 2.34, with a median of 1.23 indicating there was not common resistance to any one resistant clone. No resistance patterns were observed when classifying the compounds based on chemical structure, but this was not surprising given the diversity of compounds chosen. On the other hand, given that these confirmed compounds were derived from larger unconfirmed hit lists to which some filtration criteria may have been applied (for example, elimination of obvious dihydrofolate reductase inhibitors[32]), some[10][11][12][13] pre-existing bias may exist in the set.
The 48-h assay was carried out in a 96-well format following standard methods using the ^3H-hypoxanthine incorporation assay. The raw EC50 values corresponding to this assay can be found in Supplementary Data 3. Briefly, this assay relies on the parasite incorporation of labelled hypoxanthine that is proportional to P. falciparum growth. A culture of parasitized RBCs (0.5% parasitemia with a percentage of ring stage higher than 70% of total parasitemia, 2.0% haematocrit) in RPMI-1640, […] and 5 μM hypoxanthine was exposed to drug serial dilutions. Plates were incubated for 24 h at 37 °C, 5% CO2, 5% O2 and 90% N2. After 24 h of incubation, ^3H-hypoxanthine was added and plates were incubated for an additional 24-h period. After that, parasites were harvested on a glass fibre filter using a TOMTEC Cell Harvester 96. Filters were dried and melt-on scintillator sheets were used to determine the incorporation of ^3H-hypoxanthine. Radioactivity was measured using a microbeta counter. Data were normalized using the incorporation of the positive (parasitized RBCs without drug) and negative (same culture with artesunate at 2 μM) controls. All assays were conducted in triplicate using three independently grown cultures, and EC50 values were determined using the XLfit add-in module for Excel (version 2.3.1) from Grafit (version 5.3.1.3), where parameter h is the assay hill slope, x is the compound concentration and y is the inhibition of growth effect. The XLfit equation is: […]
Alternatively, a SYBR Green-based proliferation approach was used for the 72-h assay, as previously described. […]

[3] = test system: GNF156R (PfCARL L830V, S1076I and M81I, parent Dd2); test: Cross-resistance EC50 assay, GNF156R; type: cell-based; conditions: Plasmodium falciparum, SYBR green 72 hour assay, asynchronized parasites, 96-well or 1536-well format
Source text: as §1, §2, §3

[4] = test system: ATQ-R4 (cytb M133I and L144S, parent 3D7); test: Cross-resistance EC50 assay, ATQ-R4; type: cell-based, Plasmodium falciparum; conditions: for EC50: Plasmodium falciparum, 3D7, SYBR green 72 hour assay, asynchronized parasites, 96-well or 1536-well format, ATQ-R4; for EC50 fold-shift, ATQ-R4 vs parent: resistance, parent 3D7
Source text: as §1, §2, §3

Compound: Cc1c(C)n(Cc2ccc(F)cc2)c2ccc(C(=O)NCc3ccco3)cc12 [MMV008149]
- EC50 [1]: 0.934 µM
- EC50 [2]: 1.36 µM
- EC50 (W2): 805 nM
- EC50 [3]: 0.798 µM
- EC50 [4]: 3.88 µM
- EC50 fold-shift, ATQ-R4 vs parent [4]: Statistically significant resistance

Compound: CN(C)S(=O)(=O)c1cc(-c2ccc3nccc(-c4cccc(S(N)(=O)=O)c4)c3c2)cnc1N [MMV024038]
- EC50 [1]: 0.958 µM
- EC50 [2]: 1 µM
- EC50 (W2): 327 nM
- EC50 [3]: 0.861 µM
- EC50 [4]: 1.16 µM

Compound: COc1ccccc1CNC(=O)CCn1c(=O)[nH]c2ccsc2c1=O [MMV019066]
- EC50 [1]: 0.014 µM
- EC50 [2]: 0.008 µM
- EC50 (W2): 1270 nM
- EC50 [3]: 0.008 µM
- EC50 [4]: 0.057 µM
- EC50 fold-shift, ATQ-R4 vs parent [4]: 16 ×

Compound: Cc1ccc(Cn2c(N3CCC(C(=O)NCc4cccs4)CC3)nc3ccccc32)cc1 [MMV007564]
- EC50 [1]: 0.705 µM
- EC50 [2]: 0.739 µM
- EC50 (W2): 503 nM
- EC50 [3]: 1.62 µM
- EC50 [4]: 1.05 µM

Compound: COc1ccc2c3c([nH]c2c1)[C@H](CO)N(C(C)=O)CC31CCN(C(=O)Nc2ccccc2F)CC1 [MMV673482]
- EC50 [1]: 0.007 µM
- EC50 [2]: 0.007 µM
- EC50 (W2): 176 nM
- EC50 [4]: 0.027 µM

Compound: CC(NCc1ccccc1)c1cc(Cl)ccc1O (stereo not drawn) [MMV665789]
- EC50 [1]: 0.261 µM
- EC50 [2]: 0.201 µM
- EC50 (W2): 147 nM
- EC50 [3]: 0.681 µM
- EC50 [4]: 0.41 µM

Compound: COc1ccc(-c2nc(NC(=O)Cc3ccc4c(c3)OCCO4)sc2C)cc1 [MMV019719]
- EC50 [1]: 0.328 µM
- EC50 [2]: 0.405 µM
- EC50 (W2): 143 nM
- EC50 [3]: 0.347 µM
- EC50 [4]: 0.203 µM

Compound: CCC(C)NCC(O)(c1ccc(Cl)cc1)c1ccc(Cl)cc1 (stereo not drawn) [MMV665928]
- EC50 [1]: 0.18 µM
- EC50 [2]: 0.16 µM
- EC50 (W2): 137 nM
- EC50 [3]: 0.682 µM
- EC50 [4]: 0.09 µM

Compound: CC(C)c1cccc(C(NC(=O)C2Cc3ccccc3CN2C(=O)c2cccc(N3CCOCC3)c2)C2CCCC2)c1 (stereo not drawn) [MMV028038]
- EC50 [1]: 0.612 µM
- EC50 [2]: 0.555 µM
- EC50 (W2): 489 nM
- EC50 [3]: 0.654 µM
- EC50 [4]: 1.01 µM

Compound: COc1cc(-c2nc(-c3ccccc3)c(-c3ccccc3)[nH]2)cc(OC)c1O [MMV020750]
- EC50 [1]: 1.22 µM
- EC50 [2]: 1.47 µM
- EC50 (W2): 1870 nM
- EC50 [3]: 0.663 µM
- EC50 [4]: 0.912 µM

Compound: COc1ccc(N2CCN(C(CNC(=O)C3CCCCC3)c3ccc4c(c3)OCO4)CC2)cc1 (stereo not drawn) [MMV019662]
- EC50 [1]: 0.512 µM
- EC50 [2]: 0.452 µM
- EC50 (W2): 428 nM
- EC50 [3]: 0.405 µM
- EC50 [4]: 0.716 µM

Compound: CC(C)(C)OC(=O)N1CCN(c2ccccc2NC(=O)c2cccc(C(F)(F)F)c2Oc2ccc(F)cc2)CC1 [MMV030666]
- EC50 [1]: 0.221 µM
- EC50 [2]: 0.248 µM
- EC50 (W2): 298 nM
- EC50 [3]: 0.364 µM
- EC50 [4]: 0.448 µM

Compound: CCN(CC)S(=O)(=O)c1ccc(-c2csc(Nc3ccc(C)c(C)c3)n2)cc1 [MMV009108]
- EC50 [1]: 0.574 µM
- EC50 [2]: 1.01 µM
- EC50 (W2): 378 nM
- EC50 [3]: 1.5 µM
- EC50 [4]: 2.44 µM
